Test results taken from patent publication US8815535B2, “Disk diffusion assay for oritavancin” (The Medicines Company, priority 2011, dated 2014).

Columns and labels:
Experiment in all cases: Disk diffusion assay (zone of inhibition)
Type in all cases: cell-based
MRSA ATCC 33591 = details: Staphylococcus aureus, 25 μg (1.25 mg/ml) in 4% P80/Span 80 (1:1), dried overnight, read-out: Inhibition zone diameter
Description: (§1) Oritavancin powder was dissolved in freshly-prepared solutions of the indicated excipients at concentrations of 0.625, 1.25, 2.5, 5, and 10 mg/ml (adjusted for potency based on lot 875561L00 purity of 83.1%) by vortexing for a minimum of 5 minutes. Oritavancin solutions in the various excipients, while not visually clear, were free from any apparent particulates as assessed visually. Sterile Oxoid blank disks were impregnated with 20 μl of these oritavancin solutions, resulting in oritavancin disk loads ranging from 12.5 to 200 μg. Unless indicated otherwise, disks were allowed to dry overnight at room temperature prior to use.
(§2) Bacterial suspensions from isolated colonies on overnight cation-adjusted Mueller Hinton agar plates were prepared in sterile saline and adjusted to an optical density of 0.1 at 600 nm Standard cation-adjusted Mueller Hinton agar plates (90 mm diameter) were seeded with bacterial suspensions by initially swabbing the center of plate then moving outward. Swabbing was continued at a right angle and then at an oblique angle to the first and second swabs. Disks were placed upon the seeded plates with sterile forceps. Plates were then incubated overnight at 37° C. and inhibition zone diameters were measured with a ruler and reported in millimeters.

MRSA V406957 = details: Staphylococcus aureus, 20 μl of 1.25 mg/ml in 4% P80/Span 80 (1:1), calcium alginate swabs, dried overnight, duplicate, read-out: Inhibition zone diameter
Description: as §1, §2

MSSA T759545 = details: Staphylococcus aureus, 20 μl of 1.25 mg/ml in 4% P80/Span 80 (1:1), calcium alginate swabs, dried overnight, duplicate, read-out: Inhibition zone diameter
Description: as §1, §2

MRSA U784439 = details: Staphylococcus aureus, 20 μl of 1.25 mg/ml in 4% P80/Span 80 (1:1), calcium alginate swabs, dried overnight, duplicate, read-out: Inhibition zone diameter
Description: as §1, §2

MRSA T998528 = details: Staphylococcus aureus, 20 μl of 1.25 mg/ml in 4% P80/Span 80 (1:1), calcium alginate swabs, dried overnight, duplicate, read-out: Inhibition zone diameter
Description: as §1, §2

MSSA V406985 = details: Staphylococcus aureus, 20 μl of 1.25 mg/ml in 4% P80/Span 80 (1:1), calcium alginate swabs, dried overnight, duplicate, read-out: Inhibition zone diameter
Description: as §1, §2

MSSA Q141066 = details: Staphylococcus aureus, 20 μl of 1.25 mg/ml in 4% P80/Span 80 (1:1), calcium alginate swabs, dried overnight, duplicate, read-out: Inhibition zone diameter
Description: as §1, §2

MRSA T998608 = details: Staphylococcus aureus, 20 μl of 1.25 mg/ml in 4% P80/Span 80 (1:1), calcium alginate swabs, dried overnight, duplicate, read-out: Inhibition zone diameter
Description: as §1, §2

MSSA U148267 = details: Staphylococcus aureus, 20 μl of 1.25 mg/ml in 4% P80/Span 80 (1:1), calcium alginate swabs, dried overnight, duplicate, read-out: Inhibition zone diameter
Description: as §1, §2

MRSA V288615 = details: Staphylococcus aureus, 20 μl of 1.25 mg/ml in 4% P80/Span 80 (1:1), calcium alginate swabs, dried overnight, duplicate, read-out: Inhibition zone diameter
Description: as §1, §2

## CN[C@H](CC(C)C)C(=O)N[C@H]1C(=O)N[C@@H](CC(N)=O)C(=O)N[C@H]2C(=O)N[C@H]3C(=O)N[C@H](C(=O)N[C@H](C(=O)O)c4cc(O)cc(O)c4-c4cc3ccc4O)[C@H](O[C@H]3C[C@](C)(N)[C@@H](O)[C@H](C)O3)c3ccc(c(Cl)c3)Oc3cc2cc(c3O[C@@H]2O[C@H](CO)[C@@H](O)[C@H](O)[C@H]2O[C@H]2C[C@](C)(NCc3ccc(-c4ccc(Cl)cc4)cc3)[C@@H](O)[C@H](C)O2)Oc2ccc(cc2Cl)[C@H]1O [oritavancin, N-(4-(4-chlorophenyl)benzyl)A82846B]
MRSA ATCC 33591
  zone of inhibition at 25 µg/disc: 22 mm
MRSA V406957
  zone of inhibition at 1250 µg/mL: 21 mm
MSSA T759545
  zone of inhibition at 1250 µg/mL: 22 mm
MRSA U784439
  zone of inhibition at 1250 µg/mL: 20 mm
MRSA T998528
  zone of inhibition at 1250 µg/mL: 21 mm
MSSA V406985
  zone of inhibition at 1250 µg/mL: 24 mm
MSSA Q141066
  zone of inhibition at 1250 µg/mL: 20 mm
MRSA T998608
  zone of inhibition at 1250 µg/mL: 22 mm
MSSA U148267
  zone of inhibition at 1250 µg/mL: 21 mm
MRSA V288615
  zone of inhibition at 1250 µg/mL: 23 mm
